Experimental data reported in patent US5481013A, “Carboxylic acid derivatives” (Ciba-Geigy Corporation, priority 1992, dated 1996).

Columns and labels:
Type in all cases: in vivo
[1] = tested on: Nephotettix cincticeps; test: Activity against Nephotettix cincticeps (spray on rice plants); conditions: 504 h, 400 ppm spray on rice plants, larvae in stages 2 and 3, evaluated 21 days later, read-out: percentage reduction in population (% activity)
Experimental: Rice plants are treated with a spray mixture prepared with an aqueous emulsion and comprising 400 ppm of the active ingredient. After the spray coating has dried on, the rice plants are populated with leaf hopper larvae in stages 2 and 3. The test is evaluated 21 days later. The percentage reduction in population (% activity) is determined by comparing the number of surviving leaf hoppers on the treated plants with those on the untreated plants.

[2] = tested on: Bemisia tabaci; test: Activity against Bemisia tabaci; conditions: 336 h, 400 ppm spray on dwarf bean plants with nymphs, evaluated 14 days after application, read-out: activity (hatching percentages vs untreated control)
Experimental: Dwarf bean plants are placed into gauze cages and populated with adult Bemisia tabaci specimens (white fly). After oviposition has taken place, all adults are removed and, 10 days later, the plants with the nymphs located thereon are treated with a spray mixture of the active ingredients to be tested (concentration 400 ppm), which has been prepared with an aqueous emulsion. The test is evaluated for hatching percentages 14 days after the active ingredient has been applied by comparison with the untreated control batches. […] An activity of over 80% is shown, in particular, by compound Nos. 1.01, 2.01 to 2.08, 2.10 to 2.16, 2.22, 2.23, 3.01, 4.01, 4.02, 4.05, 4.06, 5.02, 5.03, 5.06 to 5.08, 5.10, 5.11, 5.20, 5.21 and 6.09.

[3] = tested on: Heliothis virescens caterpillars; test: Activity against Heliothis virescens caterpillars; conditions: 144 h, 400 ppm spray on young soybean plants, first larval stage, evaluated after 6 days, read-out: percentage reduction in population or in feeding damage (% activity)
Experimental: (§1) Young soybean plants are sprayed with a spray mixture prepared with an aqueous emulsion and comprising 400 ppm of the active ingredient. After the spray coating has dried on, the soybean plants are populated with 10 Heliothis virescens in the first larval stage and placed into a plastic container. The test is evaluated after 6 days. The percentage reduction in population, or the percentage reduction in feeding damage (% activity), is determined by comparing the number of dead caterpillars and the feeding damage on the treated plants with those on the untreated plants.

[4] = tested on: Dermanyssus gallinae; test: Activity against Dermanyssus gallinae; conditions: 72 h, 10 ppm solution, mites in different development stages, after 3 days
Experimental: 2 to 3 ml of a solution comprising 10 ppm of active ingredient and approximately 200 mites in different development stages are placed into a glass container which is open at the top. The container is then sealed with a cottonwool ball, shaken for 10 minutes until the mites are wetted completely, and then briefly turned over so that the remaining test solution can be absorbed by the cottonwool. After 3 days, the mortality of the mites is determined by counting the dead individuals; it is given as a percentage.

[5] = tested on: Nilaparvata lugens; test: Activity against Nilaparvata lugens (spray on rice plants); conditions: 504 h, 400 ppm spray on rice plants, larvae in stages 2 and 3, evaluated after 21 days, read-out: percentage reduction in population (% activity)
Experimental: Rice plants are treated with a spray mixture prepared with an aqueous emulsion and comprising 400 ppm of the active ingredient. After the spray coating has dried on, the rice plants are populated with plant hopper larvae in stages 2 and 3. The test is evaluated after 21 days. The percentage reduction in population (% activity) is determined by comparing the number of surviving plant hoppers on the treated plants with the number of plant hoppers on the untreated plants. […] An activity of over 80% is shown, in particular, by compound Nos. 1.01, 2.01 to 2.03, 2.07, 2.08, 2.10 to 2.16, 2.20, 2.22, 2.23, 2.26, 3.01, 4.01 to 4.06, 4.20, 5.01 to 5.06, 5.08, 5.10 to 5.12, 5.15, 5.16 and 5.20 to 5.25.

[6] = tested on: Nilaparvata lugens; test: Systemic activity against Nilaparvata lugens; conditions: 144 h, pots with rice plants in 400 ppm aqueous emulsion solution, larvae in stages 2 and 3, evaluated 6 days later, read-out: percentage reduction in population (% activity)
Experimental: Pots containing rice plants are placed into an aqueous emulsion solution comprising 400 ppm of the active ingredient. The rice plants are subsequently populated with larvae in stages 2 and 3. The test is evaluated 6 days later. The percentage reduction in population (% activity) is determined by comparing the numbers of plant hoppers on the treated plants with those on the untreated plants.

[7] = tested on: Tetranychus urticae; test: Activity against Tetranychus urticae; conditions: 144 h, 400 ppm spray on young bean plants, mixed population, 6 days at 25° C, read-out: percentage reduction in population (% activity)
Experimental: Young bean plants are populated with a mixed population of Tetranychus urticae and, after 1 day, sprayed with a spray mixture prepared with an aqueous emulsion and comprising 400 ppm of the active ingredient. The plants are subsequently incubated for 6 days at 25° C and then evaluated. The percentage reduction in population (% activity) is determined by comparing the number of dead eggs, larvae and adults on the treated plants with those on the untreated ones.

[8] = tested on: Heliothis virescens; test: Ovicidal/larvicidal activity on Heliothis virescens; conditions: 192 h, 400 ppm spray on eggs deposited on cotton, evaluated after 8 days, read-out: % reduction in population (hatching percentage of eggs and survival rate of caterpillars)
Experimental: Heliothis eggs which have been deposited on cotton are sprayed with a spray mixture prepared with an aqueous emulsion and comprising 400 ppm of the active ingredient. After 8 days, the hatching percentage of the eggs and the survival rate of the caterpillars are evaluated by comparing them with untreated control batches (% reduction in population).

[9] = tested on: Panonychus ulmi (OP- and carb.- resistant); test: Activity against Panonychus ulmi (OP- and carb.- resistant); conditions: 336 h, 400 ppm spray on apple seedlings, evaluated after 14 days, read-out: percentage reduction in population (% activity)
Experimental: Apple seedlings are populated with adult females of Panonychus ulmi. After seven days, the infested plants are sprayed to drip point with an aqueous emulsion comprising 400 ppm of the test compound and grown in the greenhouse. The test is evaluated after 14 days. The percentage reduction in population (% activity) is determined by comparing the number of dead spider mites on the treated plants with those on the untreated plants. […] An activity of over 80% is shown, in particular, by compound Nos. 1.01, 2.01, 2.07, 2.08, 2.10, 2.12 to 2.16, 2.22, 2.23, 2.26, 3.01, 4.01, 4.02, 4.06, 5.01 to 5.03, 5.05, 5.06, 5.08, 5.10, 5.11, 5.15, 5.16 and 5.20 to 5.25.

[10] = tested on: Ctenocephalides felis; test: Activity against Ctenocephalides felis; conditions: 504 h, 100 ppm in flea larvae nutrient medium, flea eggs, checked after 21 days
Experimental: 20 to 25 flea eggs are placed into a horizontally positioned 50 ml tissue culture flask into which 15 g of flea larvae nutrient medium comprising 100 ppm of the active ingredient to be tested have previously been introduced. The test flasks are incubated in an incubator at 26° to 27° C. and an atmospheric humidity of 60-70%. After 21 days, the flasks are checked for the presence of adult fleas, unhatched pupae and larvae.

[11] = tested on: adult Anthonomus grandis; test: Activity against adult Anthonomus grandis; conditions: 72 h, 400 ppm spray on young cotton plants, adults, evaluated after 3 days, read-out: percentage reduction in population or in feeding damage (% activity)
Experimental: as §1, with “cotton” for “soybean”, “adult Anthonomus grandis” for “Heliothis virescens in the first larval stage”, “3” for “6”, “beetles” for “caterpillars”

O=C(CCCCCCCC=C(F)F)OCCOc1ccc(OCc2ccccc2)cc1 [Compound 4.05]
> 80%: activity at 400 ppm [1] | pest or weed control at 400 ppm [2] | activity at 400 ppm [3] | mortality at 10 ppm [4]

O=C(CCCCCCCC=C(F)F)NCCOc1ccc(Oc2ccccc2)cc1 [Compound 4.20]
> 80%: activity at 400 ppm [5] | activity at 400 ppm [6] | activity at 400 ppm [7] | activity at 400 ppm [3] | pest or weed control at 400 ppm [8]

O=C(CCCCCCCCCC=C(F)F)OCCOc1ccc(Oc2ccccn2)cc1 [Compound 5.03]
> 80%: pest or weed control at 400 ppm [2]

CC(COC(=O)CCCCCCCCCC=C(F)F)Oc1ccc(Oc2ccccc2)cc1 (centres unmarked) [Compound 5.06]
> 80%: activity at 400 ppm [9]

O=C(CCCCCCCCCC=C(F)F)OCCOc1ccc(OCc2ccc(Cl)cc2)cc1 [Compound 5.08]
> 80%: activity at 400 ppm [5] | pest or weed control at 100 ppm [10] | activity at 400 ppm [9] | activity at 400 ppm [7]

N#Cc1ccc(COc2ccc(OCCOC(=O)CCCCCCCCCC=C(F)F)cc2)cc1 [Compound 5.10]
> 80%: activity at 400 ppm [9] | pest or weed control at 400 ppm [2] | activity at 400 ppm [11]

Cc1ccc(COc2ccc(OCCOC(=O)CCCCCCCCCC=C(F)F)cc2)cc1 [Compound 5.11]
> 80%: activity at 400 ppm [9] | pest or weed control at 400 ppm [2]

O=C(CCCCCCCCCC=C(F)F)OCCOc1ccc(OCc2cccc([N+](=O)[O-])c2)cc1 [Compound 5.15]
> 80%: activity at 400 ppm [5] | activity at 400 ppm [6] | activity at 400 ppm [9] | activity at 400 ppm [1] | activity at 400 ppm [7] | activity at 400 ppm [3] | pest or weed control at 400 ppm [8]

Cc1ccc(COc2ccc(OCCOC(=O)CCCCCCCCCC=C(F)F)cc2)cc1C [Compound 5.16]
> 80%: activity at 400 ppm [5] | activity at 400 ppm [6] | activity at 400 ppm [9] | activity at 400 ppm [1] | activity at 400 ppm [7] | activity at 400 ppm [3] | activity at 400 ppm [11] | pest or weed control at 400 ppm [8]

O=C(CCCCCCCCCC=C(F)F)OCCOc1ccc(OCc2cccc(Cl)c2)cc1 [Compound 5.20]
> 80%: activity at 400 ppm [1] | pest or weed control at 400 ppm [2]

O=C(CCCCCCCCCC=C(F)F)NCCOc1ccc(OCc2ccc(C(F)(F)F)cn2)cc1 [Compound 5.21]
> 80%: pest or weed control at 400 ppm [2] | mortality at 10 ppm [4]

O=C(CCCCCCCCCC=C(F)F)OCCOc1ccc(OCc2ncc(C(F)(F)F)cc2Cl)cc1 [Compound 5.22]
> 80%: activity at 400 ppm [1]

CC(COC(=O)CCCCCCCCCC=C(F)F)Oc1ccc(Sc2ccccc2)cc1 (centres unmarked) [Compound 5.25]
> 80%: activity at 400 ppm [1] | activity at 400 ppm [3]

CC(CCCCCCCCCC(=O)OCCOc1ccc(Oc2ccccc2)cc1)=C(F)Cl [Compound 6.09]
> 80%: pest or weed control at 400 ppm [2] | pest or weed control at 400 ppm [8]
